The results in this text go back to patent US20260174786A1, “A NITROGEN-CONTAINING SPIROCYCLIC COMPOUND, PHARMACEUTICAL COMPOSITION AND USE THEREOF” (Prime Gene Therapeutics Co., Ltd., priority 2022, published 2026).

In the assay the target is T1, hTRPV3 (Homo sapiens, UniProt Q8NET8).
T1 construct: expressed in transfected cells; host or cells: HEK-293
T1 sequence (Q8NET8 1-790): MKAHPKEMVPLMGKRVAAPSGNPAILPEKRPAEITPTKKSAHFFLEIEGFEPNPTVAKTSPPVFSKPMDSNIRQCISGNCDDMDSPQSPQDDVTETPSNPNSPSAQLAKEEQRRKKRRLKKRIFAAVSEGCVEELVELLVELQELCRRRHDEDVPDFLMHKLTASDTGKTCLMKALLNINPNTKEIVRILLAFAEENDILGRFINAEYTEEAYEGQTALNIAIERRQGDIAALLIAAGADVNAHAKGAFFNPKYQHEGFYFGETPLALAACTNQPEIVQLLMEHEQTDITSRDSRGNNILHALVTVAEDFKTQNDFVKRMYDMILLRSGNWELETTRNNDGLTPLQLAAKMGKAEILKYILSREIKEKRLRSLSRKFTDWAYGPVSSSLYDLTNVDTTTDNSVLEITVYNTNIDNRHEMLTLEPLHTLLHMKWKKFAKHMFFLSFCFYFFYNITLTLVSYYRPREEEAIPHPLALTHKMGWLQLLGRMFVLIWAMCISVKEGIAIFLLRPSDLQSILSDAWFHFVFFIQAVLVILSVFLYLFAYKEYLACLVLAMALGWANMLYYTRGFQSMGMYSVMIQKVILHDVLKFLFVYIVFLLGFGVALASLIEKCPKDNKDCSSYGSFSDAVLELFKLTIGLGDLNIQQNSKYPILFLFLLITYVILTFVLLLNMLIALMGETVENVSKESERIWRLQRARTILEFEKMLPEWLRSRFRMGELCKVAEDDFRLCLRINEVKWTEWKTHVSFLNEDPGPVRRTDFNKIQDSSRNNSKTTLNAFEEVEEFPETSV
The assay can be described thus: Whole cell patch clamp inhibition rate test on HEK-293 cells instantaneously expressing TRPV3. The class given is cell-based. To be noted: HEK293; hTRPV3, single concentration 0.3 μM. The method, then:
In this study, HEK-293 cells instantaneously expressing TRPV3 were used for experimental detection.
The operation steps are as follows:
The cells were cultured in DMEM medium containing 10% fetal bovine serum at a temperature of 37° C. and a carbon dioxide concentration of 5%.
Day 1: Cells were inoculated into a 6-well plate with 5×10^5 cells per well.
Day 2: Transfection was performed using Lipofectamine 3000 transfection reagent, with a plasmid to transfection reagent ratio of 1 μg: 2 μL. The total amount of plasmid used per well was 3 μg. Specifically, two sterile centrifuge tubes were taken and 100 μL Opti-MEM was added to each tube. 6 μL Lipofectamine 3000 was added to one tube and mixed well; and 3 μg plasmid was added to another tube and mixed well, and then 6 μL P3000 was added and mixed well; Subsequently, the diluted plasmid DNA was added to diluted Lipofectamine 3000 and incubated at room temperature for 10-15 min. DNA liposome complex was dropped into the cells, shaked gently and mixed well, and then cultured in an incubator. The liquid was changed after 4 to 6 h.
Day 3: The cells were digested and seeded into 24 well plates with pre-placed cover slides, with 8×10^3 cells per well.
Day 4: Patch clamp testing was performed.
The voltage stimulation protocol for recording TRPV3 current using whole cell patch clamp is as follows: after forming a whole cell seal, a cell membrane voltage clamp was set at −80 mV. Firstly, a membrane potential was recorded at 0 mV, and then a voltage was command to start from −100 mV, to depolarize in the form of Ramp to 100 mV within 100 ms, and finally restore to 0 mV. Data collection was repeated every 5 seconds to observe the inhibitory effect of pharmaceutical on peak current. Experimental data was collected by EPC 10 amplifier (HEKA) and stored in PatchMaster (HEKA) software.
A microelectrode puller was used to pull the capillary glass tube into a recording electrode. The electrode filled with intracellular fluid was inserted into a microelectrode holder, and a microelectrode manipulator was operated under an inverted microscope to immerse the electrode in extracellular fluid and an electrode resistance (Rpip) was recorded. The electrode was brought into contact with the cell surface and a negative pressure suction was applied to form a high resistance seal (GΩ). At this point, a fast capacitance compensation was performed, and negative pressure was continued to apply in order to break the cell membrane, so that a whole cell recording mode was formed. Then, a slow capacitance compensation was performed and experimental parameters such as film capacitance (Cm) and series resistance (Rs) were recorded. No leakage compensation was provided.
When the TRPV3 current recorded by the whole cell had stabilized, administration was started. Each pharmaceutical concentration acted for 5 minutes (or until the current stabilized) before detecting the next concentration. A plurality of concentrations was tested for each test compound. A cover glass covered with cells was placed in a recording bath under an inverted microscope. A blank control extracellular solution and a working fluid for the compound to be tested sequentially flowed through the recording bath from low concentration to high concentration using gravity perfusion to act on the cells. Liquid exchange was performed using a peristaltic pump during recording. The current detected by each cell in the extracellular fluid without the compound served as its own control group. Each concentration was independently tested twice using at least two cells. All electrophysiological tests were conducted at room temperature.
On the technique in general: The patch-clamp technique gives a direct electrical read-out from membranes.
What is called inhibition is the drop in the measured response relative to a control, in per cent. `O=C(c1ccc(F)cn1)N1CCC2(CCC(O)c3cc(-c4ccccc4C4CC4)ccc32)C1` (stereo not drawn) [Example 1, (6-(2-Cyclopropylphenyl)-4-hydroxy-3,4-dihydro-2H-spiro[naphthalene-1,3′-pyrrolidine]-1′-yl) (5-fluoropyridin-2-yl) ketone] returned an inhibition at 0.3 µM below 25%. The figure for `O=C(c1ccc(Cl)cn1)N1CCC2(CCC(O)c3cc(-c4ccccc4C4CC4)ccc32)C1` (stereo not drawn) [Example 2, (5-chloropyridin-2-yl)(6-(2-cyclopropylphenyl)-4-hydroxy-3,4-dihydro-2H-spiro[naphthalene-1,3′-pyrrolidine]-1′-yl) ketone] is below 25%; for `O=C(c1ccc(F)cn1)N1CCC2(CC1)CC(O)c1cc(-c3ccccc3C3CC3)ccc12` (stereo not drawn) [Example 3, (5-(2-cyclopropylphenyl)-3-hydroxy-2,3-dihydrospiro[indene-1,4′-piperidine]-1′-yl)(5-fluoropyridin-2-yl) ketone] it is 25 to 50%. The result for `CC(C)c1ccccc1-c1ccc2c(c1)C(O)CC21CCN(C(=O)c2ccc(F)cn2)CC1` (stereo not drawn) [Example 4, (5-fluoropyridin-2-yl)(3-hydroxy-5-(2-isopropylphenyl)-2,3-dihydrospiro[indene-1,4′-piperidine]-1′-yl) ketone] reads 25 to 50%; that for `CC1(O)CC2(CCN(C(=O)c3ccc(F)cn3)C2)c2ccc(-c3ccccc3C3CC3)cc21` (stereo not drawn) [Example 5, (5-(2-cyclopropylphenyl)-3-hydroxy-3-methyl-2,3-dihydrospiro[indene-1,3′-pyrrolidine]-1′-yl)(5-fluoropyridin-2-yl) ketone], below 25%; that for `O=C(c1ccc(F)cn1)N1CCC2(C1)CC(O)(C(F)(F)F)c1cc(-c3ccccc3C3CC3)ccc12` (stereo not drawn) [Example 7, (5-(2-cyclopropylphenyl)-3-hydroxy-3-(trifluoromethyl)-2,3-dihydrospiro[indene-1,3′-pyrrolidine]-1′-yl)(5-fluoropyridin-2-yl) ketone], below 25%. The result for `O=C(c1ccc(F)cn1)N1CCC2(C1)OB(O)c1ccccc12` (stereo not drawn) [Example 8, (5-fluoropyridin-2-yl) (1-hydroxy-1H-spiro[benzo[c][1,2]oxaborolane-3,3′-pyrrolidine]-1′-yl) ketone] reads below 25%; that for `O=C(c1ccc(F)cn1)N1CCC2(C1)OB(O)c1cc(-c3ccccc3C3CC3)ccc12` (stereo not drawn) [Example 9, (6-(2-cyclopropylphenyl)-1-hydroxy-1H-spiro[benzo[c][1,2]oxaborolane-3,3′-pyrrolidine]-1′-yl)(5-fluoropyridin-2-yl) ketone], 25 to 50%; that for `O=C(c1ccc(Cl)cn1)N1CCC2(C1)OB(O)c1cc(-c3ccccc3C3CC3)ccc12` (stereo not drawn) [Example 10, (5-chloropyridin-2-yl)(6-(2-cyclopropylphenyl)-1-hydroxy-1H-spiro[benzo[c][1,2]oxaborolane-3,3′-pyrrolidine]-1′-yl) ketone], 25 to 50%. As for `[2H]C1(O)CC2(CN(C(=O)c3ccc(F)cn3)C([2H])([2H])C2)c2ccc(-c3ccccc3C3CC3)cc21` (stereo not drawn) [Example 11, (5-(2-cyclopropylphenyl)-3-hydroxy-2,3-dihydrospiro[indene-1,3′-pyrrolidine]-1′-yl-3,5′,5′-d3)(5-fluoropyridin-2-yl) ketone], the inhibition at 0.3 µM lay in the range of 70 to 100%.

For the compound `[2H]C1(O)CC2(CCN(C(=O)c3ccc(F)cn3)C2)c2ccc(-c3ccccc3C3CC3)cc21` (stereo not drawn) [Example 12, (5-(2-cyclopropylphenyl)-3-hydroxy-2,3-dihydrospiro[indene-1,3′-pyrrolidine]-1′-yl-3-d)(5-fluoropyridin-2-yl) ketone], the inhibition at 0.3 µM was in the range of 70 to 100%. With `Cc1nc(C(=O)N2CCC3(CC(O)c4cc(-c5ccccc5C5CC5)ccc43)C2)ccc1O` (stereo not drawn) [Example 13, (5-(2-cyclopropylphenyl)-3-hydroxy-2,3-dihydrospiro[indene-1,3′-pyrrolidine]-1′-yl)(5-hydroxy-6-methylpyridin-2-yl) ketone], the inhibition at 0.3 µM is below 25%. The result for `O=C(c1ccc(Cl)cn1)N1CCC2(CC(O)c3cc(-c4ccccc4C4CC4)ccc32)C1` (stereo not drawn) [Example 14, (5-chloropyridin-2-yl)(5-(2-cyclopropylphenyl)-3-hydroxy-2,3-dihydrospiro[indene-1,3′-pyrrolidine]-1′-yl) ketone] reads 70 to 100%. `CC(C)c1ccccc1-c1ccc2c(c1)C(O)CC21CCN(C(=O)c2ccc(F)cn2)C1` (stereo not drawn) [Example 16, (5-fluoropyridin-2-yl)(3-hydroxy-5-(2-isopropylphenyl)-2,3-dihydrospiro[indene-1,3′-pyrrolidine]-1′-yl) ketone] yielded an inhibition at 0.3 µM of 70 to 100%. The result for `O=C(c1csc(Cl)n1)N1CCC2(CC(O)c3cc(-c4ccccc4C4CC4)ccc32)C1` (stereo not drawn) [Example 17, (2-chlorothiazol-4-yl)(5-(2-cyclopropylphenyl)-3-hydroxy-2,3-dihydrospiro[indene-1,3′-pyrrolidine]-1′-yl) ketone] reads 70 to 100%. The figure for `CC(C)c1ccccc1-c1ccc2c(c1)C(O)CC21CCN(C(=O)c2csc(Cl)n2)C1` (stereo not drawn) [Example 18, (2-chlorothiazol-4-yl)(3-hydroxy-5-(2-isopropylphenyl)-2,3-dihydrospiro[indene-1,3′-pyrrolidine]-1′-yl) ketone] is 70 to 100%. The figure for `O=C(c1cccc(C2CC2)n1)N1CCC2(CC(O)c3cc(-c4ccccc4C4CC4)ccc32)C1` (stereo not drawn) [Example 19, (5-(2-cyclopropylphenyl)-3-hydroxy-2,3-dihydrospiro[indene-1,3′-pyrrolidine]-1′-yl)(6-cyclopropylpyridin-2-yl) ketone] is 70 to 100%; for `CC(C)c1ccccc1-c1ccc2c(c1)C(O)CC21CCN(C(=O)c2cccc(C3CC3)n2)C1` (stereo not drawn) [Example 20, (6-cyclopropylpyridin-2-yl)(3-hydroxy-5-(2-isopropylphenyl)-2,3-dihydrospiro[indene-1,3′-pyrrolidine]-1′-yl) ketone] it is 70 to 100%. Turning to `O=C(c1ccc(F)cn1)N1CC[C@]2(C[C@@H](O)c3cc(-c4ccccc4C4CC4)ccc32)C1` [Example 22, ((1R,3R)-5-(2-cyclopropylphenyl)-3-hydroxy-2,3-dihydrospiro[indene-1,3′-pyrrolidine]-1′-yl)(5-fluoropyridin-2-yl)ketone], the inhibition at 0.3 µM is below 25%.

In turn, `O=C(c1ccc(F)cn1)N1CC[C@]2(C[C@H](O)c3cc(-c4ccccc4C4CC4)ccc32)C1` [Example 23, ((1R,3S)-5-(2-cyclopropylphenyl)-3-hydroxy-2,3-dihydrospiro[indene-1,3′-pyrrolidine]-1′-yl)(5-fluoropyridin-2-yl)ketone] came in with an inhibition at 0.3 µM below 25%. The figure for `O=C(c1ccc(F)cn1)N1CC[C@@]2(C[C@H](O)c3cc(-c4ccccc4C4CC4)ccc32)C1` [Example 24, ((1S,3S)-5-(2-cyclopropylphenyl)-3-hydroxy-2,3-dihydrospiro[indene-1,3′-pyrrolidine]-1′-yl)(5-fluoropyridin-2-yl)ketone] is below 25%.
